Test results from patent EP1171107B1, “USE OF A PHARMACEUTICAL COMPOSITION IN THE MANUFACTURE OF A MEDICAMENT FOR THE TREATMENT OF PATHOLOGICAL CONDITIONS OF THE EYE CAUSED BY BACTERIA, VIRUSES, FUNGI, YEASTS AND PROTOZOA” (Dr. GERHARD MANN chem.-pharm. Fabrik GmbH, priority 1999, dated 2000).
Structures can show the parent of a compound that is named as a salt.

Columns and labels:
Assay type in all cases: cell-based
S.epidermidis [1] = assay: Quantitative germ count (re-isolation, surface method) after inoculating the test preparation; settings: Ausgangskeimzahl 2,1 x 10^5 KBE/ml
Excerpt: (§1) Escherichia (E.coli) Staphylococcus (S.aureus) Streptococcus (Sc.) Pneumoniae Pseudomonas (P.aeruginosa) Staphylococcus (S. epidermidis) Haemophilus (H. influenzae)
(§2) Die verschiedenen Testkeime wurde jeweils aus einem Lyophilisat in NaCl-Peptonpuffer homogenisiert und auf Caseinpepton-Sojymehlpepton. (Caso-) Agar (Fa. bioMérieux; Art. Nr. 43019) bez. Kochblut-Agar (Fa. bioMérieux; Art. Nr. 43109) subkultiviert. Die Teststämme wurden vor Versuchsbeginn durch Erstellen eines biochemischen Profils mittels ATB/Vitek-System (Fa. bioMérieux, Nürtingen) auf Reinheit und Identität überprüft.
(§3) Die Ausgangskeimzahl wurde im Oberflächenverfahren mit Hilfe eines Spiralplaters (Fa. Meintrup, Lähden) ermittelt und ist im einzelnen den Tabellen 1-12 zu entnehmen.
(§4) Die verschiedenen Testsubstanzen a. bis j. wurden jeweils zu 5 ml in sterile Zentrifugenröhrchen abgefüllt und mit ca. 10^5 KBE^*/ml (* = koloniebildende Einheiten) der oben genannten Testkeime kontaminiert. Pro Substanz wurde für jeden Testkeim und jede zu prüfende Testzeit ein separater Ansatz angeimpft, d.h.10 Testsubstanzen zu jeweils 7 Testzeiten und 6 Testkeime (= insgesamt 502 Testansätze). Nach 2, 6, 8, 24, 32, 48 und 72 Stunden wurde dann der jeweilige Testansatz 10 Minuten bei 3000 rpm abzentrifugiert. Der Überstand wurde dekantiert und das Pellet in 5 ml NaCl Peptonpuffer aufgenommen und resuspendiert. Die Suspension wurde erneut 10 Minuten bei 3000 rpm abzentrifugiert und 5 ml NaCl-Peptonpuffer aufgenommen und mittels Vortex homogenisiert.
(§5) Die anschließende Keimzahlbestimmung erfolgte im Oberflächenverfahren durch Ausspiralisieren eines […] Aliquots auf Caso-Agar bzw. für H. influenzae auf Kochblut-Agar. Die Platten wurden bei 33±2°C für max. 4 Tage bebrütet. Die Nachweisgrenze des Verfahrens liegt bei 100 KBE/ml.

P.aeruginosa [2] = assay: as above; settings: Ausgangskeimzahl 2,7 x 10^5 KBE/ml
Excerpt: as §1, §2, §3, §4, §5

P.aeruginosa [3] = assay: Qualitative examination: enrichment of the inoculated test preparation in broth
Excerpt: as §1, §2, §4
(§6) Jeweils 2 ml der Testansätze wurden in 20 ml Caso-Bouillon oder für H. influenzae, in Fildes-Medium der Firma Becton Dickinson, ARt. Nr. 0349-739, angereichert und ebenfalls maximal 4 Tage bei 33± 2°C bebrütet. Ein negatives Ergebnis der Anreicherung belegt die Elimination der inokulierten Keime.

H.influenzae [4] = assay: as above
Excerpt: as §1, §2, §4, §6

S.aureus = assay: Quantitative germ count (re-isolation, surface method) after inoculating the test preparation; settings: Ausgangskeimzahl 2,6 x 10^5 KBE/ml
Excerpt: as §1, §2, §3
as §4, with “Nach 2, 6, 8, 24, 32, 48 und 72 Stunden wurde dann der jeweilige Testansatz 10 Minuten bei 3000 rpm abzentrifugiert.” left out
as §5

Sc. pneumoniae [5] = assay: as above; settings: Ausgangskeimzahl 3,7 x 10^5 KBE/ml
Excerpt: as §1, §2, §3
as §4, with “Nach 2, 6, 8, 24, 32, 48 und 72 Stunden wurde dann der jeweilige Testansatz 10 Minuten bei 3000 rpm abzentrifugiert.” left out
as §5

H.influenzae [6] = assay: as above; settings: Ausgangskeimzahl 2,8 x 10^5 KBE/ml
Excerpt: as §1, §2, §3
as §4, with “Nach 2, 6, 8, 24, 32, 48 und 72 Stunden wurde dann der jeweilige Testansatz 10 Minuten bei 3000 rpm abzentrifugiert.” left out
as §5

E.coli [7] = assay: as above; settings: Ausgangskeimzahl 2,7 x 10^5 KBE/ml
Excerpt: as §1, §2, §3
as §4, with “Nach 2, 6, 8, 24, 32, 48 und 72 Stunden wurde dann der jeweilige Testansatz 10 Minuten bei 3000 rpm abzentrifugiert.” left out
as §5

S.epidermidis [8] = assay: Qualitative examination: enrichment of the inoculated test preparation in broth
Excerpt: as §1, §2
as §4, with “Nach 2, 6, 8, 24, 32, 48 und 72 Stunden wurde dann der jeweilige Testansatz 10 Minuten bei 3000 rpm abzentrifugiert.” left out
as §6

Sc. pneumoniae [9] = assay: as above
Excerpt: as §1, §2
as §4, with “Nach 2, 6, 8, 24, 32, 48 und 72 Stunden wurde dann der jeweilige Testansatz 10 Minuten bei 3000 rpm abzentrifugiert.” left out
as §6

E.coli [10] = assay: as above
Excerpt: as §1, §2
as §4, with “Nach 2, 6, 8, 24, 32, 48 und 72 Stunden wurde dann der jeweilige Testansatz 10 Minuten bei 3000 rpm abzentrifugiert.” left out
as §6

O=C(O)c1cn(C2CC2)c2cc(N3CCNCC3)c(F)cc2c1=O [Ciprofloxacin HCl 0,35 Gew.-%, Ciprofloxacin HCl, reference compound]
- -: Ergebnis der Reisolierung qualitiativ (+/-) nach Anreicherung (P.aeruginosa [3]; 8 h after inoculation)
-: Ergebnis der Reisolierung qualitiativ (+/-) nach Anreicherung (P.aeruginosa [3]; 2 h after inoculation) | Ergebnis der Reisolierung qualitiativ (+/-) nach Anreicherung (P.aeruginosa [3]; 4 h after inoculation) | Ergebnis der Reisolierung qualitiativ (+/-) nach Anreicherung (P.aeruginosa [3]; 6 h after inoculation) | Ergebnis der Reisolierung qualitiativ (+/-) nach Anreicherung (P.aeruginosa [3]; 24 h after inoculation) | Ergebnis der Reisolierung qualitiativ (+/-) nach Anreicherung (P.aeruginosa [3]; 32 h after inoculation) | Ergebnis der Reisolierung qualitiativ (+/-) nach Anreicherung (P.aeruginosa [3]; 48 h after inoculation) | Ergebnis der Reisolierung qualitiativ (+/-) nach Anreicherung (P.aeruginosa [3]; 72 h after inoculation) | Ergebnis der Reisolierung qualitiativ (+/-) nach Anreicherung (H.influenzae [4]; 2 h after inoculation) | Ergebnis der Reisolierung qualitiativ (+/-) nach Anreicherung (H.influenzae [4]; 4 h after inoculation) | Ergebnis der Reisolierung qualitiativ (+/-) nach Anreicherung (H.influenzae [4]; 6 h after inoculation) | Ergebnis der Reisolierung qualitiativ (+/-) nach Anreicherung (H.influenzae [4]; 8 h after inoculation) | Ergebnis der Reisolierung qualitiativ (+/-) nach Anreicherung (H.influenzae [4]; 24 h after inoculation) | Ergebnis der Reisolierung qualitiativ (+/-) nach Anreicherung (H.influenzae [4]; 32 h after inoculation) | Ergebnis der Reisolierung qualitiativ (+/-) nach Anreicherung (H.influenzae [4]; 48 h after inoculation) | Ergebnis der Reisolierung qualitiativ (+/-) nach Anreicherung (H.influenzae [4]; 72 h after inoculation) | Ergebnis der Reisolierung qualitiativ (+/-) nach Anreicherung (S.epidermidis [8]; 8 h after inoculation) | Ergebnis der Reisolierung qualitiativ (+/-) nach Anreicherung (S.epidermidis [8]; 24 h after inoculation) | Ergebnis der Reisolierung qualitiativ (+/-) nach Anreicherung (S.epidermidis [8]; 32 h after inoculation) | Ergebnis der Reisolierung qualitiativ (+/-) nach Anreicherung (S.epidermidis [8]; 48 h after inoculation) | Ergebnis der Reisolierung qualitiativ (+/-) nach Anreicherung (S.epidermidis [8]; 72 h after inoculation) | Ergebnis der Reisolierung qualitiativ (+/-) nach Anreicherung (Sc. pneumoniae [9]; 2 h after inoculation) | Ergebnis der Reisolierung qualitiativ (+/-) nach Anreicherung (Sc. pneumoniae [9]; 4 h after inoculation) | Ergebnis der Reisolierung qualitiativ (+/-) nach Anreicherung (Sc. pneumoniae [9]; 6 h after inoculation) | Ergebnis der Reisolierung qualitiativ (+/-) nach Anreicherung (Sc. pneumoniae [9]; 8 h after inoculation) | Ergebnis der Reisolierung qualitiativ (+/-) nach Anreicherung (Sc. pneumoniae [9]; 24 h after inoculation) | Ergebnis der Reisolierung qualitiativ (+/-) nach Anreicherung (Sc. pneumoniae [9]; 32 h after inoculation) | Ergebnis der Reisolierung qualitiativ (+/-) nach Anreicherung (Sc. pneumoniae [9]; 48 h after inoculation) | Ergebnis der Reisolierung qualitiativ (+/-) nach Anreicherung (Sc. pneumoniae [9]; 72 h after inoculation) | Ergebnis der Reisolierung qualitiativ (+/-) nach Anreicherung (E.coli [10]; 2 h after inoculation) | Ergebnis der Reisolierung qualitiativ (+/-) nach Anreicherung (E.coli [10]; 4 h after inoculation) | Ergebnis der Reisolierung qualitiativ (+/-) nach Anreicherung (E.coli [10]; 6 h after inoculation) | Ergebnis der Reisolierung qualitiativ (+/-) nach Anreicherung (E.coli [10]; 8 h after inoculation) | Ergebnis der Reisolierung qualitiativ (+/-) nach Anreicherung (E.coli [10]; 24 h after inoculation) | Ergebnis der Reisolierung qualitiativ (+/-) nach Anreicherung (E.coli [10]; 32 h after inoculation) | Ergebnis der Reisolierung qualitiativ (+/-) nach Anreicherung (E.coli [10]; 48 h after inoculation) | Ergebnis der Reisolierung qualitiativ (+/-) nach Anreicherung (E.coli [10]; 72 h after inoculation)
<100 KBE/ml: Ergebnis der Reisolierung (in KBE/ml) (S.epidermidis [1]; 2 h after inoculation) | Ergebnis der Reisolierung (in KBE/ml) (S.epidermidis [1]; 4 h after inoculation) | Ergebnis der Reisolierung (in KBE/ml) (S.epidermidis [1]; 6 h after inoculation) | Ergebnis der Reisolierung (in KBE/ml) (S.epidermidis [1]; 8 h after inoculation) | Ergebnis der Reisolierung (in KBE/ml) (S.epidermidis [1]; 24 h after inoculation) | Ergebnis der Reisolierung (in KBE/ml) (S.epidermidis [1]; 32 h after inoculation) | Ergebnis der Reisolierung (in KBE/ml) (S.epidermidis [1]; 48 h after inoculation) | Ergebnis der Reisolierung (in KBE/ml) (S.epidermidis [1]; 72 h after inoculation) | Ergebnis der Reisolierung (in KBE/ml) (P.aeruginosa [2]; 2 h after inoculation) | Ergebnis der Reisolierung (in KBE/ml) (P.aeruginosa [2]; 4 h after inoculation) | Ergebnis der Reisolierung (in KBE/ml) (P.aeruginosa [2]; 6 h after inoculation) | Ergebnis der Reisolierung (in KBE/ml) (P.aeruginosa [2]; 8 h after inoculation) | Ergebnis der Reisolierung (in KBE/ml) (P.aeruginosa [2]; 24 h after inoculation) | Ergebnis der Reisolierung (in KBE/ml) (P.aeruginosa [2]; 32 h after inoculation) | Ergebnis der Reisolierung (in KBE/ml) (P.aeruginosa [2]; 48 h after inoculation) | Ergebnis der Reisolierung (in KBE/ml) (P.aeruginosa [2]; 72 h after inoculation) | Ergebnis der Reisolierung (in KBE/ml) (S.aureus; 2 h after inoculation) | Ergebnis der Reisolierung (in KBE/ml) (S.aureus; 4 h after inoculation) | Ergebnis der Reisolierung (in KBE/ml) (S.aureus; 6 h after inoculation) | Ergebnis der Reisolierung (in KBE/ml) (S.aureus; 24 h after inoculation) | Ergebnis der Reisolierung (in KBE/ml) (S.aureus; 32 h after inoculation) | Ergebnis der Reisolierung (in KBE/ml) (S.aureus; 48 h after inoculation) | Ergebnis der Reisolierung (in KBE/ml) (S.aureus; 72 h after inoculation) | Ergebnis der Reisolierung (in KBE/ml) (Sc. pneumoniae [5]; 2 h after inoculation) | Ergebnis der Reisolierung (in KBE/ml) (Sc. pneumoniae [5]; 4 h after inoculation) | Ergebnis der Reisolierung (in KBE/ml) (Sc. pneumoniae [5]; 6 h after inoculation) | Ergebnis der Reisolierung (in KBE/ml) (Sc. pneumoniae [5]; 8 h after inoculation) | Ergebnis der Reisolierung (in KBE/ml) (Sc. pneumoniae [5]; 24 h after inoculation) | Ergebnis der Reisolierung (in KBE/ml) (Sc. pneumoniae [5]; 32 h after inoculation) | Ergebnis der Reisolierung (in KBE/ml) (Sc. pneumoniae [5]; 48 h after inoculation) | Ergebnis der Reisolierung (in KBE/ml) (Sc. pneumoniae [5]; 72 h after inoculation) | Ergebnis der Reisolierung (in KBE/ml) (H.influenzae [6]; 2 h after inoculation) | Ergebnis der Reisolierung (in KBE/ml) (H.influenzae [6]; 4 h after inoculation) | Ergebnis der Reisolierung (in KBE/ml) (H.influenzae [6]; 6 h after inoculation) | Ergebnis der Reisolierung (in KBE/ml) (H.influenzae [6]; 8 h after inoculation) | Ergebnis der Reisolierung (in KBE/ml) (H.influenzae [6]; 24 h after inoculation) | Ergebnis der Reisolierung (in KBE/ml) (H.influenzae [6]; 32 h after inoculation) | Ergebnis der Reisolierung (in KBE/ml) (H.influenzae [6]; 48 h after inoculation) | Ergebnis der Reisolierung (in KBE/ml) (H.influenzae [6]; 72 h after inoculation) | Ergebnis der Reisolierung (in KBE/ml) (E.coli [7]; 2 h after inoculation) | Ergebnis der Reisolierung (in KBE/ml) (E.coli [7]; 4 h after inoculation) | Ergebnis der Reisolierung (in KBE/ml) (E.coli [7]; 6 h after inoculation) | Ergebnis der Reisolierung (in KBE/ml) (E.coli [7]; 8 h after inoculation) | Ergebnis der Reisolierung (in KBE/ml) (E.coli [7]; 24 h after inoculation) | Ergebnis der Reisolierung (in KBE/ml) (E.coli [7]; 32 h after inoculation) | Ergebnis der Reisolierung (in KBE/ml) (E.coli [7]; 48 h after inoculation) | Ergebnis der Reisolierung (in KBE/ml) (E.coli [7]; 72 h after inoculation)
+: Ergebnis der Reisolierung qualitiativ (+/-) nach Anreicherung (S.epidermidis [8]; 2 h after inoculation) | Ergebnis der Reisolierung qualitiativ (+/-) nach Anreicherung (S.epidermidis [8]; 4 h after inoculation) | Ergebnis der Reisolierung qualitiativ (+/-) nach Anreicherung (S.epidermidis [8]; 6 h after inoculation)
